Values after ≈ are worked out from the molar mass of the structure shown. Active and inactive are the calls of the source. No cut-off for these calls is given here.
Assays:
Cell membrane [1] = assay: Disruption of membrane integrity in Staphylococcus aureus ATCC 25923 assessed as increase in PI uptake at 16 ug/ml measured after 1 hr by SYTO9/PI staining based fluorometric analysis; conditions: dose 16.0 µg/ml
Lipid bilayer = assay: Binding affinity to bacterial membrane mimic POPG large unilamellar vesicle assessed as hyperchromic shift at 125 uM measured after 1 hr by UV-Vis spectrophotometric analysis
Bacillus subtilis = assay: Antibacterial activity against Bacillus subtilis ATCC 6633 assessed as bacterial growth inhibition incubated for 18 hrs by CLSI based micro-dilution broth method; format: functional
[2] = Apparent permeability of the compound across bacterial inner membrane mimic pure POPG in PBS buffer at pH 7.4 incubated for 5 hrs by PAMPA based UV-Vis spectrophotometric analysis; format: ADME
Streptococcus pyogenes = assay: Antibacterial activity against Streptococcus pyogenes ATCC 12344 assessed as bacterial growth inhibition incubated for 18 hrs by micro-dilution broth method; format: functional
[3] = Apparent permeability of the compound across bacterial inner membrane mimic pure POPG in PBS buffer assessed as membrane retention at pH 7.4 incubated for 5 hrs by PAMPA based UV-Vis spectrophotometric analysis; format: ADME, cell membranes; conditions: pH 7.4, 5 h
Cell membrane [4] = assay: Disruption of membrane integrity in Pseudomonas aeruginosa ATCC 27853 assessed as increase in PI uptake at 16 ug/ml measured every 15 mins for 6 hrs by SYTO9/PI staining based fluorometric analysis; conditions: dose 16.0 µg/ml
Enterococcus faecalis = assay: Antibacterial activity against Enterococcus faecalis ATCC 19433 assessed as bacterial growth inhibition incubated for 18 hrs by micro-dilution broth method; format: functional
Cell membrane [5] = assay: Disruption of membrane integrity in Staphylococcus aureus ATCC 25923 assessed as increase in PI positive cells at 16 ug/ml measured after 1 hr by SYTO9/PI staining based confocal laser scanning microscope analysis; format: subcellular; conditions: dose 16.0 µg/ml
Cell membrane [6] = assay: Disruption of membrane integrity in Enterococcus faecalis ATCC 19433 assessed as increase in PI uptake at 16 ug/ml measured after 15 mins by SYTO9/PI staining based fluorometric analysis; conditions: dose 16.0 µg/ml

SMILES	Activity (Cell membrane [1])	Activity (Lipid bilayer)	MIC (Bacillus subtilis)	Papp at 5 h [2]	MIC (Streptococcus pyogenes)	R% [3]	Activity (Cell membrane [4])	MIC (Enterococcus faecalis)	Activity (Cell membrane [5])	Activity (Cell membrane [6])
N=C(NCCCCCCCCNC(N)=O)NCC1CC1.O=C(O)C(F)(F)F	Active	Active	1 µg/mL	6.1 ×10⁻⁶ cm/s	0.5 µg/mL	16%	Active	1 µg/mL	Active	Active
CCCCCCCCN(CCCCCCCCNC(=N)NCC1CC1)C(=O)N(CCCCCCNC(=N)NCC1CC1)CCCCCCNC(=N)NCC1CC1	Active	Active	0.5 µg/mL (≈ 0.636 µM)	0.18 ×10⁻⁶ cm/s	1 µg/mL (≈ 1.27 µM)	63%	Active	0.5 µg/mL (≈ 0.636 µM)	Active	Active
N=C(N)NCCCCCCCCN(CCCCCCCCNC(=N)NCC1CC1)C(=O)N(CCCCCCCCNC(=N)NCC1CC1)CCCCCCCCNC(=N)NCC1CC1.O=C(O)C(F)(F)F	Active	Active	0.5 µg/mL	0.26 ×10⁻⁶ cm/s	0.25 µg/mL	56%	Active	1 µg/mL	Active	Active

Source: ChEMBL document CHEMBL5154741, “Antibacterial alkylguanidino ureas: Molecular simplification approach, searching for membrane-based MoA” (Eur J Med Chem, 2022)
